Reference: patent publication US20060276537A1, “Use of ladostigil for the treatment of multiple sclerosis” (priority 2005, published 2006)

Legend:
[1] = Body weight of the EAE mice (Table 7); type: in vivo
Excerpt: These differences were statistically significant (p<0.000, Manova). According to the subsequent Post Hoc comparison (LSD), all the groups were different from the control (Table 7). […] On day 14, four days after the onset of the disease, sick mice lost an average of 2 g of weight. The average mean weight of GA-blocked mice was reduced by only 0.4 g. On day 23 the control group reached the lowest weight, 14.6 g.

[2] = tested on: chronic progressive EAE induced by pMOG35-55 in C57BL/6 mice; assay: MOG-induced chronic progressive EAE in C57BL/6 mice, clinical scoring; type: in vivo; conditions: GA blocking, dose 250 mg/kg, given with inoculum on day 0
Description: MOG (Myelin oligodendrocyte glycoprotein) is a member of the immunoglobulin superfamily expressed exclusively in CNS myelin. It is one of the most encephalitogenic proteins and is widely used to induce EAE in different rodent strains. In C57BL/6 mice, immunization with the MOG peptide pMOG35-55 in CFA induces chronic progressive EAE. Ladostigil was tested in this model in order to assess its ability to inhibit the disease.
EAE was induced by subcutaneous injection of encephalitogenic emulsion at a volume of 0.2 ml/mouse in the right flank. On the day of induction, pertussis toxin was injected intraperitoneally at a volume dose of 0.2 ml/mouse. The injection of the pertussis toxin was repeated after 48 hours. At the end of the experiment, 6-7 brains from control and the ladostigil groups were dissected and frozen at −70° C. for CHE (cholinesterase) determination and 6-7 brains were dissected and frozen for MAO (monoamine oxidase) determination. Before sacrifice, blood for ChE determination was taken on heparine, hemolysed 1/20 in 10 mM cold phosphate buffer pH=6.0 and stored at −70° C. until the assay.
90 female C57Bl/6 mice 8-10 weeks old obtained from Harlan animal breeding center were used in the study. Mice were allocated randomly into 6 groups:
Both compounds were administered by gavage once daily during the whole experiment (30 days) at a volume of 0.2 ml/mouse.
The mice were observed daily from the 10th day post-EAE induction and the EAE clinical signs were scored. The scores were recorded on observation cards according to the grades described in Table 5:
The number of sick animals (animals with a score of ≧1 at any point) in each group was summed.
The incidence of disease and the % activity were calculated as follows: [formula] [formula] [formula]
The maximal scores of all mice in each group were summed.
The mean maximal score and the % activity of the group were calculated as follows: [formula] [formula] [formula]
The individual scores (IMS) of each of the mice during the observation period were summed (score 6 will be counted forward).
The GMS of the group and its % activity were calculated as follows: [formula] [formula] [formula]
Their dates of onset were calculated as day of termination +1.

glatiramer acetate [GA, reference compound]
Reduction of average mean weight ([1]; GA-blocked mice, day 14): 0.4 g
Weight of EAE mice ([1]; day 2 after induction, GA blocking, dose 250 mg/kg): 18.6 ± 0.8 g
Incidence [2]: 14/15
Mortality [2]: 0/15
% Inhibition ([2]; vs control group mean score): 54.6%
